# From patent US20100178259A1, “REDUCING FIBROSIS USING MATRIX METALLOPROTEINASE INHIBITORS” (The Regents of The University of Michigan, priority 2009, published 2010)
# “Also recorded” adds a separate entry of the source.
# Tests used:
# [1] = molecular target: T1, MMP-2 (Homo sapiens, UniProt P08253); conditions: in vitro; cited from earlier work
# T1 sequence (P08253 110-660): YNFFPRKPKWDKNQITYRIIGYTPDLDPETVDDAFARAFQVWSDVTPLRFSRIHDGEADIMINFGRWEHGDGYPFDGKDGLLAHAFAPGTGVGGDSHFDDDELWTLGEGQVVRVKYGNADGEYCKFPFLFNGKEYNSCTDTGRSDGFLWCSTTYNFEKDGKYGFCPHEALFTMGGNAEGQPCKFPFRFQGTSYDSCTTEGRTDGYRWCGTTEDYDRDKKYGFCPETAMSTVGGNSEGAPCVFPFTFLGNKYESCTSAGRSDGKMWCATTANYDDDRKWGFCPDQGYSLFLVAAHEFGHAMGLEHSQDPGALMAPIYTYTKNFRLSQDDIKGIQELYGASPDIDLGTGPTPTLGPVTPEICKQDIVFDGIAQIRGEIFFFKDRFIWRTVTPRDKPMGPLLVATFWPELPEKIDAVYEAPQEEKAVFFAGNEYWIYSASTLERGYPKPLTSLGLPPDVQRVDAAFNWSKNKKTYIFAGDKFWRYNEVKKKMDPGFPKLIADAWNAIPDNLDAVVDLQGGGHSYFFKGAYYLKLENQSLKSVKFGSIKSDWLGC
# [2] = tested on: HRS/J hairless mice skin exposed to UV irradiation; assay: UV irradiation sunburn/scarring in hairless mice, topical treatment, skin cross-section histology; format: in vivo, mouse; conditions: UV 200-400 mJ/square cm, topical 1% MMI270 in 70% ethanol (95%) and 30% propylene glycol daily after UV exposure, compared to untreated irradiated skin (FIG. 2)
# Experimental: The following experiments illustrate embodiments of the present technology. Experimental mice (HRS/J hairless mice) are treated with UV irradiation at a dosage that results in sunburn and consequent scarring of the skin. UV exposure includes daily exposure (Mon-Fri), or 3× per week (Mon, Wed, Fri), at 200-400 mJ/square cm, until scarring occurs, typically after 2-3 weeks. The UVB/A2 source is FS tubes filtered with Kodacel to remove wavelengths below 290 nm. Non-irradiated mice serve as non-wounded controls.
# FIG. 1 is a photograph of a tissue cross-section of non-irradiated mouse skin. The outer surface of the skin includes a layer 110 of dead skin cells overtop the epidermis 120. Located beneath the epidermis 120, is a region comprising extracellular matrix 130, which includes collagen and other proteins. A layer of fat cells 140 underlies the extracellular matrix 130 and is followed by muscle 150. Hair follicles 160 can be seen embedded within the extracellular matrix 130 region.
# FIG. 2 is a photograph of a tissue cross-section of mouse skin that was exposed to UV irradiation to cause a burn and that was not treated with MMP inhibitor. Morphology of the skin changes in response to the burn wound which can subsequently form into a scar. The outer skin surface and layer 210 of dead skin cells overlies a thickened epidermis 220 followed by a thickened region of extracellular matrix 230. […]
# [3] = molecular target: T2, MMP-1 (Homo sapiens, UniProt P03956); conditions: in vitro; cited from earlier work
# T2 sequence (P03956 100-469): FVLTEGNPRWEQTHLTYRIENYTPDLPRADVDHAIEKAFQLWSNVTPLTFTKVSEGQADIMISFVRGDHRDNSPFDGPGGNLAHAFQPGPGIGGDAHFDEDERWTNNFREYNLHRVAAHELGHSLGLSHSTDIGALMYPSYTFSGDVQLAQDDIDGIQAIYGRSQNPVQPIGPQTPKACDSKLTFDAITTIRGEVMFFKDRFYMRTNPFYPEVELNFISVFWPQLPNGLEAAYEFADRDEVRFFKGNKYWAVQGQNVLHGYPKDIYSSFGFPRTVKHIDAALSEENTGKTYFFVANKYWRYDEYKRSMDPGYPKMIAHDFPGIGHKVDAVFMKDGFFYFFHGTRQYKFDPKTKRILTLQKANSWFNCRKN
# [4] = molecular target: MMP-3 (Homo sapiens, UniProt P08254); conditions: in vitro; cited from earlier work
# MMP-3, sequence (P08254 100-477, species assumed): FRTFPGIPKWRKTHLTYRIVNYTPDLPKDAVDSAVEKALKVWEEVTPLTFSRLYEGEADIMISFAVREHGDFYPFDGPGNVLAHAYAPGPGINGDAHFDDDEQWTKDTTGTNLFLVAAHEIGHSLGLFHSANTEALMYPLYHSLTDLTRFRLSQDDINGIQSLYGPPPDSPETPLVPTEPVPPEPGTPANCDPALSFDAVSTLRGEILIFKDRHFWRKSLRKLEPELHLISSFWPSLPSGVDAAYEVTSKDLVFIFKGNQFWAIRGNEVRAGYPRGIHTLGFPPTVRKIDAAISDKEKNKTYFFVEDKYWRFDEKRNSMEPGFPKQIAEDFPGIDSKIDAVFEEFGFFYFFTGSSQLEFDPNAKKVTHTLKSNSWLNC
# [5] = molecular target: MMP-9 (Homo sapiens, UniProt P14780); conditions: in vitro; cited from earlier work
# MMP-9, sequence (P14780 94-707, species assumed): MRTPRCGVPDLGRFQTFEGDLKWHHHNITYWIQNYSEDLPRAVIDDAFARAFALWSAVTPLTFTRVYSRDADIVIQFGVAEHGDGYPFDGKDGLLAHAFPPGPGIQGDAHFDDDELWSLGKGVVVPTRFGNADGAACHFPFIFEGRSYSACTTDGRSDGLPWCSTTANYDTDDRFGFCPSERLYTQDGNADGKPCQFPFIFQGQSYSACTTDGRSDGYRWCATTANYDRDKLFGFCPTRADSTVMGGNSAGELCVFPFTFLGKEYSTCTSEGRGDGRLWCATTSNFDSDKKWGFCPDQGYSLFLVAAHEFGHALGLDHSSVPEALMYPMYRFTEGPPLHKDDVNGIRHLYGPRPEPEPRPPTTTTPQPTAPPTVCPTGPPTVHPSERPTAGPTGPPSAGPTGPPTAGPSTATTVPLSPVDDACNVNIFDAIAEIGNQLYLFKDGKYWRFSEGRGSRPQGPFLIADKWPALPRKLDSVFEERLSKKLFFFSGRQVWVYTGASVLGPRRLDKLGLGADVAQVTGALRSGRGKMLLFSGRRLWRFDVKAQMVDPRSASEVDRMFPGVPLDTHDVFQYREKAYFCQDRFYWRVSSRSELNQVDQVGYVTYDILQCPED
smiles,measurement,setting,value
"COc1ccc(S(=O)(=O)N(Cc2cccnc2)[C@@H](C(=O)NO)C(C)C)cc1 [MMI270, N-hydroxy-2(R)-[[4-methoxybenzenesulfonyl]-(3-picolyl)amino]-3-methylbutanamide]",concentration inhibiting MMP-2 activity,[1],nanomolar concentrations
same,expansion and thickening of the epidermis and extracellular matrix,[2],less expansion and thickening of the epidermis and extracellular matrix; also recorded: decrease in thickness of the extracellular matrix
same,concentration inhibiting MMP-1 activity,[3],nanomolar concentrations
same,concentration inhibiting MMP-3 activity,[4],nanomolar concentrations
same,concentration inhibiting MMP-9 activity,[5],nanomolar concentrations
